Structures can show the parent of a compound that is named as a salt. Where two headings read alike, the source gives them in different places. Bounds are passed on as bounds.

For orientation: IC50 means the concentration that inhibits the measured activity by half.

The assay concerns the target GST-Syk Full Protein (human) (Homo sapiens, UniProt P43405). Nature of the assay: Syk kinase inhibition test (HTRF method). It is filed as biochemical. As to the method:
Syk Kinase Inhibition Test (HTRF Method)
After the compounds were serially diluted with dimethylsulfoxide (DMSO), 10 μL of those 10-fold diluted with kinase buffer (20 mM HEPES pH 7.0, 10 mM MgCl2, 50 mM NaCl, 1 mM 2-ME, 0.05% BSA) was added to opti-plate HTRF-96 (Packard) (final DMSO concentration: 2%). 20 μL of a substrate solution (kinase buffer as mentioned above containing Syk Specific-Peptide Substrate Biot-EDPDYEWPSA-NH2 (Peptide Laboratory) 625 nM, 250 μM ATP (SIGMA) was added (final substrate concentration 250 nM, 100 μM ATP), and further 20 μL of an enzyme solution (kinase buffer as mentioned above containing GST-Syk Full Protein (human) 16 nM) (final concentration 6.4 nM) was added and the mixture was immediately stirred with a plate shaker to start enzyme reaction. After reacted at room temperature (20 to 25° C.) for 30 minutes, the enzyme reaction was terminated by adding 100 μL/well of a buffer for terminating and detecting the reaction (30 mM HEPES pH 7.0, 150 mM KF, 0.15% BSA, 0.075% Tween-20, 75 mM EDTA) containing HTRF reagent (5 μg/ml XL665-Streptavidin (CIS bio), 170 ng/ml Eu(K)-anti-PhosphoTyrosin, PT-66 (CIS bio)) (final concentration 20 mM HEPES pH 7.0, 100 mM KF, 0.1% BSA, 0.05% Tween-20, 50 mM EDTA). After allowed to stand still at room temperature for 1 hour, inhibitory effect of a compound against Syk kinase enzymatic activity was evaluated by measuring 665/620 fluorescence ratio to excitation light at 337 nm by ARVO (Wallac).

Setting [1] is: Tables 1-x, compounds A, read-out: sykHTRF ave IC50.
[2] abbreviates: Tables 2-x, thiophene compounds B, read-out: sykHTRK ave IC50.

For the compound `Cc1ccnc(Nc2cccc(-c3cnc(COCC(=O)O)s3)n2)c1` [Compound A-615, {5-[6-(4-methylpyridin-2-ylamino)pyridin-2-yl]thiazol-2-ylmethoxy}acetic acid hydrochloride], the IC50 under setting [1] was < 100 nM.

Take `Cc1ccnc(Nc2cccc(-c3cnc(CSc4ccc(C(=O)O)cc4)s3)n2)c1` [Compound A-619]: the IC50 under setting [1] was in the range of 100 to 1000 nM. Same read-out and setting: as for `Cc1cccc(Nc2cccc(-c3cnc(N4CCC(CC(=O)O)CC4)s3)n2)n1` [Compound A-628], the figure is 100 to 1000 nM; as for `CN(CCC/C=C/C(=O)O)c1ncc(-c2cccc(Nc3cc(C(F)(F)F)ccn3)n2)s1` [Compound A-657, (E)-6-(N-methyl-N-{5-[6-(4-trifluoromethylpyridin-2-ylamino)pyridin-2-yl]thiazol-2-yl}amino)hex-2-enoic acid dihydrochloride], < 100 nM.

Turning to `CNC(=O)C(C)(C)NC(=O)C1CCN(c2ncc(-c3cccc(Nc4cc(C)ccn4)n3)s2)CC1` [Compound A-491], the half-inhibitory concentration (IC50) under setting [1] was in the range of 100 to 1000 nM. The same measure, in the same setting: as for `Cc1ccnc(Nc2cccc(-c3cnc(N(C)c4ccc(/C=C/C(=O)O)cc4)s3)n2)c1` [Compound A-618], the figure is 100 to 1000 nM. Same read-out and setting: as for `Cc1ccnc(Nc2cccc(-c3cnc(N4CCC5(CC4)CC5C(=O)O)s3)n2)c1` (stereo not drawn) [Compound A-712, 6-{5-[6-(4-methylpyridin-2-ylamino)pyridin-2-yl]thiazol-2-yl}-6-azaspiro[2.5]octane-1-carboxylic acid], the figure is < 100 nM. In the case of `Cc1ccnc(Nc2cccc(-c3cnc(N4CCC[C@H]4C(=O)NS(C)(=O)=O)s3)n2)c1` [Compound A-646], under setting [1], the IC50 is 100 to 1000 nM. As to `Cc1ccnc(Nc2cccc(-c3cnc(N(C)CC(C)(C)O)s3)n2)c1` [Compound A-702, 2-methyl-1-(N-methyl-N-{5-[6-(4-methylpyridin-2-ylamino)pyridin-2-yl]thiazol-2-yl}amino)propan-2-ol], under setting [1], the half-maximal inhibitory concentration (IC50) is < 100 nM.

For `Cc1ccnc(Nc2cccc(-c3cnc(N4CCCC(CCCCC(=O)O)C4)s3)n2)c1` (stereo not drawn) [Compound A-719, 5-(1-{5-[6-(4-methylpyridin-2-ylamino)pyridin-2-yl]thiazol-2-yl}piperidin-3-yl)pentanoic acid dihydrochloride], the IC50 under setting [1] is < 100 nM. Regarding `Cc1ccnc(Nc2cccc(-c3cnc(N(CCCCC(=O)O)C(C)C)s3)n2)c1` [Compound A-643, 5-(N-isopropyl-N-{5-[6-(4-methylpyridin-2-ylamino)pyridin-2-yl]thiazol-2-yl}amino)pentanoic acid], the IC50 under setting [1] was < 100 nM.

For `Cc1ccnc(Nc2cccc(-c3cnc(N4CCC[C@H]4C(=O)NCC(C)(C)C)s3)n2)c1` [Compound A-660], under setting [1], the IC50 was in the range of 100 to 1000 nM. On to `Cc1ccnc(Nc2cccc(-c3cnc(N4CCC(NC(=O)C5CCC(O)CC5)CC4)s3)n2)c1` (stereo not drawn) [Compound A-662], for which, under setting [1], the IC50 fell in the range of 100 to 1000 nM. As to `Cc1ccnc(Nc2cccc(-c3cnc(N4CCC(C(C)(C)C(=O)O)CC4)s3)n2)c1` [Compound A-18, 2-methyl-2-(1-{5-[6-(4-methylpyridin-2-ylamino)pyridin-2-yl]thiazol-2-yl}piperidin-4-yl)propionic acid], the IC50 (HTRF, 100 μM ATP, 30 min room temperature, average, read-out: sykHTRF ave IC50) was < 100 nM.

`NC(=O)[C@@H]1CCCN1c1ncc(-c2cccc(Nc3cc(CC(=O)O)ccn3)n2)s1` [Compound A-559]: the IC50 under setting [1] was in the range of 100 to 1000 nM. On the same count and under the same terms, next, `O=C(O)CC1CCN(c2ncc(-c3cccc(Nc4ccc(Cl)cn4)n3)s2)CC1` [Compound A-636, (1-{5-[6-(5-chloropyridin-2-ylamino)pyridin-2-yl]thiazol-2-yl}piperidin-4-yl)acetic acid dihydrochloride]: < 100 nM. On the same count and under the same terms, next, `Cc1ccnc(Nc2cccc(-c3cnc(N(Cc4ccccc4)C[C@H]4CC[C@H](C(=O)O)CC4)s3)n2)c1` [Compound A-622, trans-4-[(N-benzyl-N-{5-[6-(4-methylpyridin-2-ylamino)pyridin-2-yl]thiazol-2-yl}amino)methyl]cyclohexanecarboxylic acid]: < 100 nM; `Cc1ccnc(Nc2cccc(-c3cnc(N4CCC(NS(C)(=O)=O)CC4)s3)n2)c1` [Compound A-484, N-(1-{5-[6-(4-methylpyridin-2-ylamino)pyridin-2-yl]thiazol-2-yl}piperidin-4-yl)methanesulfonamide]: < 100 nM. Same read-out and setting: next, `COc1ccc(C)cc1Nc1cccc(-c2cnc(N3CCC(CC(=O)O)CC3)s2)n1` [Compound A-708]: 100 to 1000 nM. `Cc1ccnc(Nc2cccc(-c3cnc(N4CCc5c(CCC(=O)O)cccc5C4)s3)n2)c1` [Compound A-642, 3-(2-{5-[6-(4-methylpyridin-2-ylamino)pyridin-2-yl]thiazol-2-yl}-1,2,3,4-tetrahydroisoquinolin-5-yl)propionic acid]: under setting [1], the IC50 is < 100 nM. Turning to `COc1ccnc(Nc2cccc(-c3cnc(N4CCC(CC(=O)O)CC4)s3)n2)c1` [Compound A-637, (1-{5-[6-(4-methoxypyridin-2-ylamino)pyridin-2-yl]thiazol-2-yl}piperidin-4-yl)acetic acid dihydrochloride], the IC50 under setting [1] was < 100 nM. With `Cc1ccnc(Nc2cccc(-c3cnc(CN(C)CC(N)=O)s3)n2)c1` [Compound A-697, 2-(N-methyl-N-{5-[6-(4-methylpyridin-2-ylamino)pyridin-2-yl]thiazol-2-ylmethyl}amino)acetamide], the IC50 under setting [1] was < 100 nM. Take `Cc1ccnc(Nc2cccc(-c3cnc(NCCc4ccccc4)s3)n2)c1` [Compound A-701]: the IC50 under setting [1] lay within 100 to 1000 nM. The same measure, in the same setting: next, `Cc1ccnc(Nc2cccc(-c3cnc(N(C)CCC/C=C/C(=O)O)s3)n2)c1` [Compound A-640, (E)-6-(N-methyl-N-{5-[6-(4-methylpyridin-2-ylamino)pyridin-2-yl]thiazol-2-yl}amino)hex-2-enoic acid dihydrochloride]: < 100 nM. For the compound `Cc1ccnc(Nc2cccc(-c3ccc(CNC[C@H]4CC[C@H](C(=O)O)CC4)s3)n2)c1` [Compound B-118], the IC50 under setting [2] was in the range of 100 to 1000 nM. For `Cc1ccnc(Nc2cccc(-c3cnc(N(C)CCC/C=C(\F)C(=O)O)s3)n2)c1` [Compound A-647, (Z)-2-fluoro-6-(N-methyl-N-{5-[6-(4-methylpyridin-2-ylamino)pyridin-2-yl]thiazol-2-yl}amino)hex-2-enoic acid dihydrochloride], under setting [1], the IC50 is < 100 nM.

`Cc1ccnc(Nc2cccc(-c3ccc(CN(C)C(=O)c4ccc(C(=O)O)cc4)s3)n2)c1` [Compound B-125]: the IC50 under setting [2] fell in the range of 100 to 1000 nM.

As to `COCC1CCCN(c2ncc(-c3cccc(Nc4cc(C)ccn4)n3)s2)C1` (stereo not drawn) [Compound A-481, N-{6-[2-(3-methoxymethylpiperidin-1-yl)thiazol-5-yl]pyridin-2-yl}-N-(4-methylpyridin-2-yl)amine], the IC50 under setting [1] is < 100 nM. Consider `O=C(O)CC1CCN(c2ncc(-c3cccc(Nc4cc(CCO)ccn4)n3)s2)CC1` [Compound A-681, [1-(5-{6-[4-(2-hydroxyethyl)pyridin-2-ylamino]pyridin-2-yl}thiazol-2-yl)piperidin-4-yl]acetic acid dihydrochloride], for which the IC50 under setting [1] was < 100 nM.

For `CC(=O)N(CCC(=O)O)Cc1ccc(-c2cccc(Nc3cc(C)ccn3)n2)s1` [Compound B-124, 3-(N-acetyl-N-{5-[6-(4-methylpyridin-2-ylamino)pyridin-2-yl]thiophen-2-ylmethyl}amino)propionic acid hydrochloride], under setting [2], the IC50 is < 100 nM.

The record behind these values is US7803801B2, “Aminopyridine compounds having Syk inhibitory activity” (Japan Tobacco, Inc., priority 2005, dated 2010).
